What was measured:
[1] = test system: NC mice induced to manifest dermatitis; assay: Dermatitis score in dermatitis manifesting NC mouse models (Test Example 2); assay type: in vivo; conditions: 0.01% in 100% ethanol, 200 μl on dorsal back, seven times a week for 4 weeks
Experimental: By suitably modifying a method known to the skilled artisan (Jpn. J. Pharmacol. 76, 175-183 (1998) Jun Hiroi, et al. Effects of Tacrolimus Hydrate (FK-506) Ointment on Spontaneous Dermatitis in NC/Nga Mice), the following test was conducted in order to confirm the antipruritic effect of compounds of the invention.
Animals: Four-week old SPF NC mice (male) were purchased from Japan SLC; right after their arrival, the SPF NC mice were kept together with dermatitis manifesting male NC mice (older than 20 weeks) for 2 weeks under the following conditions so as to induce itch-evoked scratching behavior. […]
Drug administration: To the dorsal backs of the 20-wk NC mice that were induced to manifest dermatitis as the result of cohabitation with the spontaneous dermatitis manifesting NC mice, 100% ethanol, compound No. 7 (0.01%) dissolved in 100% ethanol or tacrolimus (0.1%) dissolved in 100% ethanol was applied from an Eppendorf pipette in 200-μl doses seven times a week for a period of 4 weeks. […] Dermatitis score: Dermatitic symptoms were observed and measured once a week. […]

[2] = biological target: T1, prostaglandin D receptor (Homo sapiens, UniProt Q13258); assay: Antagonism by BW A868C of the suppression of ADP-induced human platelet aggregation; assay type: cell-based; conditions: final concentration 95.7 nmol/L, human PRP, ADP 3 μmol/L
T1 construct: separate the supernatant (PRP, or platelet-rich plasma); endogenous in cells; host or cells: human platelets (platelet-rich plasma from healthy male donors)
T1 sequence (Q13258 1-359): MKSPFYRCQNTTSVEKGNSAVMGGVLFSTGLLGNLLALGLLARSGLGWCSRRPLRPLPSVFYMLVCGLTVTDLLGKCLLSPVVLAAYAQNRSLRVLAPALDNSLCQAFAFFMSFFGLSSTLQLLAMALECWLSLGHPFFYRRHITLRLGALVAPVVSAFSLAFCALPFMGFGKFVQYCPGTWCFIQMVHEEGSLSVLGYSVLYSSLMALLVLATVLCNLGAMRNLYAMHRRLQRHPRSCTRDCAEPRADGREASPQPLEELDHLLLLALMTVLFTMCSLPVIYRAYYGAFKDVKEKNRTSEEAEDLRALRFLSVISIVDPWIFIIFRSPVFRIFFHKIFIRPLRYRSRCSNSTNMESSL
Experimental: The prostaglandin D receptor selective antagonist used in the test was ((+/−)-3-benzyl-5-(6-carboxyhexyl)-1-(2-cyclohexyl-2-hydroxyethylamino)-hydantoin) (hereunder designated BW A868C) (Sigma-Aldrich Japan K.K.)
BW A868C was diluted with ethanol to final concentrations of 0.03 μmol/L, 0.1 μmol/L, 0.3 μmol/L, 1 μmol/L, 3 μmol/L and 10 μmol/L.
Compound No. 7 and PGD2 were diluted with ethanol to 287 nmol/L and 300 nmol/L, respectively, for subsequent use.
Blood was taken from the cubital veins of human healthy males and sampled into a tube containing 3.13% sodium citrate. The blood sample was centrifuged at 1,000 rpm for 10 minutes at 20° C. to separate the supernatant (PRP, or platelet-rich plasma) and the residue was further centrifuged at 3,000 rpm for 10 minutes at 20° C. to separate the supernatant (PPP, or platelet-poor plasma). The platelet count of PRP was appropriately diluted with PPP to 30×10^4 platelets/μL for subsequent use.
Platelet aggregation was measured with a platelet aggregation measuring instrument (PAM-8C; MC MEDICAL Co., LTD.) by the Born method (Nature, vol. 194, p. 927, 1962). A portion (273 μL) of PRP (for the BW A868C groups, 1 μL of BW A868C was added at varying concentrations) was preincubated at 37° C. for 3 minutes with stirring at 1,000 rpm. After the preincubation, 1 μL of ethanol or a test substance (compound No. 7: final concentration at 95.7 nmol/L; PGD2: final concentration at 1000 nmol/L) was added and the mixture was incubated at 37° C. for 3 minutes with stirring at 1000 rpm. After the incubation, 25 μL of ADP (final concentration at 3 μmol/L) was added to induce platelet aggregation and a maximum percent aggregation for 5 minutes was measured.

[3] = test system: human platelets; assay: Suppression of ADP-induced aggregation of human platelets; assay type: cell-based; conditions: human platelet-rich plasma, ADP (3 μM), Born method
Experimental: (A) Using the active ingredient of the present invention (compound No. 7) and PGD2 as a control for comparison, prostaglandin D receptor binding selectivity was determined with reference to the platelet aggregation suppressing action as the prostaglandin D receptor agonist action. 1. Human Platelet Aggregation Suppressing Action Suppression of ADP-Induced Aggregation of Human Platelets
The test was performed on purchased platelet-rich plasma (PRP) (6×10^8 platelets/mL) and platelet aggregation was measured based on the Born method (Nature, vol. 194, p. 927, 1962). To 100 μL of PRP, 5 μL of a 1 nM-3 μM test drug solution in ethanol was added and the mixture was incubated at 37° C. for 1 minute with stirring at 1000 rpm. To the resulting mixture, 5 μL of an aggregation inducer [ADP (3 μM)] was added to induce platelet aggregation and a maximum percent aggregation (a maximum change in light transmittance that occurred within 5 minutes after the induction of platelet aggregation) was determined by an aggregometer. The percent suppression of aggregation by each test drug was calculated from the maximum percent aggregation by the test drug as relative to the maximum percent aggregation by ethanol instead of the test drug solution and IC50 values were determined from the constructed dose-response curve.

[4] = test system: Fifty-week-old BALB/c male mice; assay: Aged mouse skin's barrier function, treatment test, TEWL (Test Example 7); assay type: in vivo; conditions: 50-week-old mice; 0.0001% in ethanol, 200 μL, once a day for 3 days
Experimental: Fifty-week-old BALB/c male mice (eight in each group) were shaven in a rostral dorsolateral area of 4 cm^2 (2 cm×2 cm) with electric clippers. Starting on the next day, a solvent (ethanol, 200 μL) or a drug dissolved in the solvent (compound No. 7 or PGD2, each being at 0.0001% in an amount of 200 μL) was applied to the shaven site for 3 days on once-a-day basis.
On the day next to the third application of the solvent or drug, TEWL at the same site was measured with Tewameter (TM210 of Courage & Khazawa, Germany) to evaluate the drug's action.

O=C(O)CSCCCC[C@@H]1[C@@H](C#C[C@@H](O)C2CCCCC2)[C@H](O)C[C@H]1Cl [Compound No. 7]
dermatitis score suppressing action compared to the vehicle group [1]: significant dermatitis score suppressing action | platelet aggregation suppressing action compared with control group (ethanol) [2]: significant platelet aggregation suppressing action | IC50 [3]: 4.27 nM | transepidermal water loss (TEWL) compared to the control group [4]: significant decrease in TEWL

From patent US7737182B2, “Pharmaceuticals for xerosis” (Taisho Pharmaceutical Co., Ltd., priority 2001, dated 2010)
